# Laboratory results published in US4160016A, “Receptor fluorescent immunoassay” (Syva Company, priority 1977, dated 1979).
# Where “and” joins values, the source holds several entries; their conditions need not be identical. Equal entries are not always repeated.
# Key:
# Assay type in all cases: biochemical
# Anti-Morphine [1] = assay: Fluorescence assay for codeine with morphine-fluorescein conjugate (Ex. V) and antimorphine (Table 2)
# Excerpt: The following tables indicate the results.
# [2] = system: Anti-Fluorescein and Anti-Morphine; assay: Table I fluorescence readings: fluorescein-morphine with antifluorescein and/or anti-morphine, with and without codeine
# Description: In order to establish the utility of the subject compounds, the following assays were carried out. […] The fluorometer employed was a Perkin-Elmer MPF-2a. Antibodies to the fluorescers had been prepared according to normal procedures. The bovine serum albumin conjugates were injected into sheep, and after appropriate periods of time, the antibodies harvested according to conventional techniques. For typical methods of obtaining antibodies, see Microbiology, Hober Medical Division, Harper and Rowe, 1969; Landsteiner, Specificity of Seriological Reactions, Dover Publications, New York, 1962; Kabat, et al, supra; and Williams, et al, Methods in Immunology and Immunochemistry, Vol. 1, Academic Press, New York, 1967.
# (§1) The reagents which were employed were as follows: FLUMO (fluorescein-morphine conjugate, Example V) was 3× 10^-6 M in water; antifluorescein was 5.6× 10^-6 M in binding sites, in water, 0.05M phosphate, pH 8.0; anti-morphine was 2× 10^-4 M in binding sites, 0.05M tris-HCl, pH 8.0, in saline solution; buffer was Tris/saline 0.05M/l, pH 8,0. Opiate solutions had 1,000 μg/ml of codeine. The solution was then diluted to a final volume of 4 ml with buffer.
# (§2) All of the determinations were made at a sensitivity setting on the instrument of 4. Excitation light was 460 nm and the emitted light read at 516 nm, with a band width of 10 nm.
# (§3) Where a reading is given but the absence of any material is indicated, only buffer was present in the cell. The reading times indicate the interval of time from the time of the first reading to the reading for the result which is reported, the first reading being made within as short an interval as possible of the mixing.
# Anti-Morphine [3] = assay: Fluorescence quenching of fluorescein-morphine by anti-morphine alone (Table I, cell No. 3); conditions: for Signal Intensity: fluorescein-morphine 5 μl + anti-morphine 5 μl
# Description: as §1, §2, §3
compound,measurement,setting,value
"COc1ccc2c3c1O[C@H]1[C@@H](O)C=C[C@H]4[C@@H](C2)N(C)CC[C@@]341 [Codeine, codeine, reference compound]",fluorescence quenched by the anti-morphine that is recovered with the addition of codeine,Anti-Morphine [1],about 30%
same,Fluorescence Signal,Anti-Morphine [1]; Ex. V + anti-morphine + codeine 1.9 × 10^-7 M,62.5 arbitrary units
same,Fluorescence Signal,Anti-Morphine [1]; Ex. V + anti-morphine + codeine 6.7 × 10^-7 M,64.5 arbitrary units
same,Fluorescence Signal,Anti-Morphine [1]; Ex. V + anti-morphine + codeine 9.5 × 10^-8 M,61 arbitrary units
same,concentration of codeine detectible,Anti-Morphine [1]; with the particular materials employed,about 10^-7
same,change in signal intensity,"[2]; cell No. 1, codeine added to mixture of the two antibodies, over 90 minutes",0.5 units
same,change in signal intensity,"[2]; cell No. 3, both antibodies with codeine and fluorescein-morphine, over 90 minutes",6.5 units
same,Signal Intensity,"[2]; codeine 5 μl + anti-fluorescein + anti-morphine, no fluorescein-morphine, 90 min, cell No. 1",6
same,Signal Intensity,"[2]; codeine 5 μl + anti-fluorescein + anti-morphine, no fluorescein-morphine, first reading, cell No. 1",5.5
same,Signal Intensity,"[2]; codeine 5 μl added to fluorescein-morphine + anti-fluorescein + anti-morphine, 90 min, cell No. 3",16
same,Signal Intensity,"[2]; codeine 5 μl added to fluorescein-morphine + anti-fluorescein + anti-morphine, first reading, cell No. 3",20
same,change in fluorescence,[2]; codeine introduced into mixture of fluorescein-morphine and antibodies to fluorescein and morphine,a detectable change in fluorescence is obtained
CN1CC[C@]23c4c5ccc(OCC(=O)Nc6ccc7c(c6)C6(OC7=O)c7ccc(O)cc7Oc7cc(O)ccc76)c4O[C@H]2[C@@H](O)C=C[C@H]3[C@H]1C5 [Ex. V],Signal Intensity,Anti-Morphine [3]; 5 min,35
same,Signal Intensity,Anti-Morphine [3]; first reading,35.5
same,reduction in signal intensity,Anti-Morphine [3]; fluorescein-morphine combined with antimorphine,approximately 25%
same,Fluorescence Signal,Anti-Morphine [1]; Ex. V 1.9 × 10^-8 M alone,79 arbitrary units
same,change in signal intensity,"[2]; cell No. 2, no codeine, in the first 5 minutes",1.5 units
same,change in signal intensity,"[2]; cell No. 2, no codeine, over 90 minutes",2.5 units
same,Signal Intensity,"[2]; fluorescein-morphine 5 μl + anti-fluorescein 5 μl + anti-morphine 5 μl, first reading, cells No. 2 and 3",25 and 23
same,Signal Intensity,"[2]; fluorescein-morphine 5 μl + anti-fluorescein 5 μl, cell No. 2",21
same,Signal Intensity,"[2]; fluorescein-morphine 5 μl alone, buffer pH 8.0, ex 460 nm, em 516 nm, cells No. 2 and 3",62 and 46
same,Signal Intensity,"[2]; fluorescein-morphine + anti-fluorescein + anti-morphine (5 μl each), 5 min, cells No. 2 and 3",26.5 and 22.5
same,Signal Intensity,"[2]; fluorescein-morphine + anti-fluorescein + anti-morphine (5 μl each), 90 min, cell No. 2",27.5
